Legend:
[1] = system: head twitch response (HTR); type: in vivo, mice; settings: SC; higher and lower doses result in fewer HTRs
Procedure: Male C57BL/6 mice (~7-9 weeks old) were used in these studies. Mice were housed 2 per cage under standard temperature- and humidity-controlled laboratory conditions with a 12-hour light/dark cycle. Mice had free access to food and water.
Both compounds were dissolved in saline vehicle at a dose volume of 10 mL/kg. Doses were corrected for salt form so that the dose administered represented free base.
Mice were randomly assigned to 1 of 6 treatment groups consisting of 2 subcutaneous injections (see Table 1), which were administered according to the schedule in FIG. 1. […] Behavior was videotaped by a camera (GoPro Hero 9) mounted above the testing chambers. Recorded video was uploaded for analysis of head twitch behavior. Number of head twitch responses (HTRs) was recorded for each animal for each 2-min bin. For each treatment group, the mean number of HTRs in each 2- or 10-min bin, and across the whole 30-min recording period, were analyzed.

5-HT2A receptor = target: T1, 5-HT2A receptor (Mus musculus, UniProt P35363); assay: Ex vivo occupancy of cortical 5-HT2A receptors by DOPR, [3H]MDL100,907 autoradiography; type: in vivo, mice; settings: for receptor occupancy at 0.32 mg/kg / receptor occupancy at 1 mg/kg / receptor occupancy at 3.2 mg/kg / receptor occupancy at 32 mg/kg: mouse, sc
T1 construct: Coronal sections containing the frontal cortex were be cut (20 μm thick) using a cryostat; from tissue; host or cells: frontal cortex sections of male C57BL/6 mouse brain
T1 sequence (P35363 whole entry): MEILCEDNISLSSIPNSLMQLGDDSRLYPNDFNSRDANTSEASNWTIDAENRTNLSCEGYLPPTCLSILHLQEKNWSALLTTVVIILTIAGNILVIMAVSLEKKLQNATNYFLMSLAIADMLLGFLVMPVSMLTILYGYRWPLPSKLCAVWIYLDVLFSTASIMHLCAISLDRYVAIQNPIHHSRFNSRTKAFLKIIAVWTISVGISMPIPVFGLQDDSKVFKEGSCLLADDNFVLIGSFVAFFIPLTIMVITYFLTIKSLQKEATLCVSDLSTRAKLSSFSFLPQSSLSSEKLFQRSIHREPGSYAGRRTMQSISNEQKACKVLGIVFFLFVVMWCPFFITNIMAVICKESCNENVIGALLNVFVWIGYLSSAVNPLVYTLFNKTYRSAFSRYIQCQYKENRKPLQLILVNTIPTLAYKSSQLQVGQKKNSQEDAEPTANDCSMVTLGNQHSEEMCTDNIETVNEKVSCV
Procedure: Mice had free access to food and water. Animals were randomly assigned to treatment groups.
Doses were calculated based on the HCl salt. MDL100,907 [methyl-^3H] was purchased from Novandi Chemistry. Ketanserin was purchased from Tocris (UK).
Mice were dosed with vehicle or DOPR (0.32, 1, 3.2, or 32 mg/kg, SC) and sacrificed at 15 or 60 minutes after dosing (n=5 per dose/time condition) by a rising CO2 concentration followed by cervical dislocation. Whole brains were removed, rinsed briefly with saline, and blot dried. A coronal cut was made at the level of the optic chiasm to produce an anterior brain block containing the frontal cortex (according to the Mouse Brain in Stereotaxic Coordinates, Paxinos and Franklin, second edition). The anterior brain block was then cut down the midline, both blocks were placed onto cork disks, covered with OCT embedding matrix (KMA-0100-00A, Cell Path), rapidly frozen in isopentane (cooled to −20/−30° C.) and stored at −20° C. for sectioning and ex vivo autoradiography. Coronal sections containing the frontal cortex were be cut (20 μm thick) using a cryostat and thaw mounted onto Superfrost plus slides and the slides were stored at −20° C. until the day of assay.
Slides containing brain sections were warmed to room temperature and sections were isolated using a DAKO pen and incubated at room temperature for 30 minutes in 200 μL of assay buffer containing 0.2 nM [^3H]MDL100,907 (total binding) or 0.2 nM [^3H]MDL100,907 and […] ketanserin (non-specific binding). Solutions were removed from the sections by aspiration and the slides were washed for two consecutive 5-minute periods in ice-cold wash buffer. The slides were then rinsed briefly in ice-cold distilled water to remove buffer salts and allowed to air dry. The assay and wash buffer consisted of 50 mM Tris, pH 7.4. The binding assay was performed on two separate occasions.
The waxy residue of the DAKO pen was removed with xylene to prevent sparks in the β-imager. Lint-free tissue and an air duster was used to remove any dust particles from the microscope slides. To make the slides conductive, copper foil tape was adhered to the free side of the microscope slides. The slides were placed in the β-imager and the levels of bound radioactivity in the sections were directly determined by counting the number of β-particles emerging from the delineated area using the M3 vision program (BioSpace). Data was collected from the brain sections over 16 hours and expressed in counts per minute per square millimetre (cpm/mm^2). A value for specific binding (cpm/mm^2) was generated by the subtraction of mean non-specific binding (cpm/mm^2) from mean total binding (cpm/mm^2) for each animal.

[2] = DOPR pharmacokinetics after SC administration; settings: mouse, in vivo

CCCc1cc(OC)c(CC(C)N)cc1OC (stereo not drawn) [DOPR, 2,5-dimethoxy-4-propylamphetamine]
dose maximally efficacious for induction of HTR [1]: 3.2 mg/kg | Specific Binding (% of Vehicle) (5-HT2A receptor; DOPR 0.32 mg/kg SC, 15 min): 105 % of Vehicle | Specific binding, Mean (SEM) (5-HT2A receptor; DOPR 0.32 mg/kg SC, 15 min): 1.39 (0.06) cpm/mm^2 | Specific Binding (% of Vehicle) (5-HT2A receptor; DOPR 0.32 mg/kg SC, 60 min): 93 % of Vehicle | Specific binding, Mean (SEM) (5-HT2A receptor; DOPR 0.32 mg/kg SC, 60 min): 1.23 (0.08) cpm/mm^2 | Specific Binding (% of Vehicle) (5-HT2A receptor; DOPR 1 mg/kg SC, 15 min): 104 % of Vehicle | Specific binding, Mean (SEM) (5-HT2A receptor; DOPR 1 mg/kg SC, 15 min): 1.38 (0.06) cpm/mm^2 | Specific Binding (% of Vehicle) (5-HT2A receptor; DOPR 1 mg/kg SC, 60 min): 67 % of Vehicle | Specific binding, Mean (SEM) (5-HT2A receptor; DOPR 1 mg/kg SC, 60 min): 0.88 (0.07) cpm/mm^2 | Specific Binding (% of Vehicle) (5-HT2A receptor; DOPR 3.2 mg/kg SC, 15 min): 71 % of Vehicle | Specific binding, Mean (SEM) (5-HT2A receptor; DOPR 3.2 mg/kg SC, 15 min): 0.93 (0.09) cpm/mm^2 | Specific Binding (% of Vehicle) (5-HT2A receptor; DOPR 3.2 mg/kg SC, 60 min): 43 % of Vehicle | Specific binding, Mean (SEM) (5-HT2A receptor; DOPR 3.2 mg/kg SC, 60 min): 0.57 (0.05) cpm/mm^2 | Specific Binding (% of Vehicle) (5-HT2A receptor; DOPR 32 mg/kg SC, 15 min): 18 % of Vehicle | Specific binding, Mean (SEM) (5-HT2A receptor; DOPR 32 mg/kg SC, 15 min): 0.23 (0.04) cpm/mm^2 | Specific Binding (% of Vehicle) (5-HT2A receptor; DOPR 32 mg/kg SC, 60 min): 8 % of Vehicle | Specific binding, Mean (SEM) (5-HT2A receptor; DOPR 32 mg/kg SC, 60 min): 0.10 (0.01) cpm/mm^2 | dose calculated to occupy 50% of 5-HT2A receptors (5-HT2A receptor; SC, mice): 2.08 mg/kg | receptor occupancy at 0.32 mg/kg (5-HT2A receptor; DOPR 0.32 mg/kg SC, 15 min): -5% | receptor occupancy at 0.32 mg/kg (5-HT2A receptor; DOPR 0.32 mg/kg SC, 60 min): 7% | receptor occupancy at 1 mg/kg (5-HT2A receptor; DOPR 1 mg/kg SC, 15 min): -4% | receptor occupancy at 1 mg/kg (5-HT2A receptor; DOPR 1 mg/kg SC, 60 min): 33% | receptor occupancy at 3.2 mg/kg (5-HT2A receptor; DOPR 3.2 mg/kg SC, 15 min): 29% | receptor occupancy at 3.2 mg/kg (5-HT2A receptor; DOPR 3.2 mg/kg SC, 60 min): 57% | receptor occupancy at 32 mg/kg (5-HT2A receptor; DOPR 32 mg/kg SC, 15 min): 82% | receptor occupancy at 32 mg/kg (5-HT2A receptor; DOPR 32 mg/kg SC, 60 min): 92% | Tmax [2]: 1 h
